Like-named read-outs stand apart in the source and are kept apart here.
Molecular target: T1, G1 APOL1 (Homo sapiens, UniProt O14791, I384M/S342G)
T1 construct: expressed in transfected cells
T1 sequence (O14791 28-398 S342G/I384M): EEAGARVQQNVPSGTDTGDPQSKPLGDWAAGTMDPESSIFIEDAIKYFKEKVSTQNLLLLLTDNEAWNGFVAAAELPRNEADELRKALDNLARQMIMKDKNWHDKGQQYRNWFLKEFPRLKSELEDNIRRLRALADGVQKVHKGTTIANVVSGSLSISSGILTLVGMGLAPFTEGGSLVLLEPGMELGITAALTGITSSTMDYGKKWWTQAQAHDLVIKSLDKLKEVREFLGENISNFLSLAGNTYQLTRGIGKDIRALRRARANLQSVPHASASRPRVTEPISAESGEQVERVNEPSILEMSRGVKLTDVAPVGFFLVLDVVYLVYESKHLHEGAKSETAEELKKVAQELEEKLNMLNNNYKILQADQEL
Test: Acute APOL1 Thallium Assay with inducible stable clones of HEK 293 cells
Type: cell-based
Conditions: HEK 293 T-Rex inducible stable clone expressing G1 APOL1
Source text: Acute APOL1 Thallium Assay with Inducible Stable Clones of HEK 293 Cells
Apolipoprotein L1 (APOL1) proteins form potassium-permeable cation pores in the plasma membrane. APOL1 risk variants (G1 and G2) induce greater potassium flux than G0 in HEK293 cells. This assay exploits the permeability of thallium (T1+) through ligand-gated potassium channels. The dye produces a bright fluorescent signal upon binding to T1+ conducted through potassium channels. The intensity of the T1+ signal is proportional to the number of potassium channels in the open state. Therefore, it provides a functional indication of the potassium channel activities. During the initial dye-loading step, the T1+ indicator dye as an acetoxymethyl (AM) ester enters the cells through passive diffusion. Cytoplasm esterases cleave the AM ester and relieve its active thallium-sensitive form. The cells are then stimulated with T1+. The increase of fluorescence in the assay represents the influx of T1+ into the cell specifically through the potassium channel (i.e. through APOL1 pores), providing a functional measurement of potassium channel/pore activity. The Thallium assay is conducted with cells expressing G1 APOL1.
APOL1 Cell Line (HEK T-Rex Stable Inducible Cell Line)
• HEK T-Rex System • Tetracycline (Tet) inducible mammalian expression system. • Stably express the Tet repressor to regulate transcription. • Expression under the full-length CMV promoter. • APOL1 stable inducible cell line Clone used: G1 DC3.25 Tissue Culture Media Cell Culture Medium • DMEM+10% FBS+P/S+5 μg/mL blasticidin+1 μg/mL puromycin. • 500 mL DMEM+55 mL FBS+5 mL P/S+280 μL blasticidin S HCl (10 mg/mL)+56 μL puromycin (10 mg/mL). Cell Assay Medium • DMEM with 2% FBS+penicillin streptomycin. Reagents:
Instruments and Equipment • Nuaire cell culture hood, Cat. No. 540-600 • 37° C./5% CO2 incubator link to robotic arm, Liconic: STX110 • Molecular Devices FLIPR^Tetra High throughput cellular screening system, Cat. No. FT0324, Molecular Devices • ThermoFisher MultiDrop 384, Cat. No. 5840300 • Biotek Microfill, Cat. No. ASF1000A-4145 • BioRad TC10 cell counter, Cat. No. 145-0010 Assay Procedures Cells Scaled Up from Frozen Vials • APOL1 G1 3.25 (HEK293 T-Rex) frozen vials: 5 million cells per vial • Step 1, Day 1: Defrost frozen vial into T-225. • Step 2, Day 5: (when 85% confluent): Split one T-225 at 3×10^6 cells per flask. • Step 3, Day 8: Splits cells to set up for the assay plates as described below. Cell Culture
T-Rex APOL1 HEK cells are split twice per week to keep the confluence state below 85% of the culture flask surface area. Cells can be kept until passage 25.
• DMEM high glucose+10% FBS, +P/S, +5 μg/mL blasticidin, +1 μg/mL puromycin. • 500 mL DMEM, +55 mL FBS, +5 mL P/S, +280 μL blasticidin 10 mg/mL, +56 μL Puromycin 10 mg/mL. Assay Media • Opti-MEM reduced serum medium from Invitrogen. Day 1 Preparation of Cell Assay Plates • Culture medium is removed from the x cm^2 T-flask by aspiration. • The cell monolayer is rinsed with PBS 1× at room temperature. PBS is removed by aspiration. • Cells are trypsinized using Trypsin. • The flasks are incubated at room temperature for 2-3 minutes. • Complete DMEM medium is then added. Cell suspension is then transferred to a 50 mL Falcon polypropylene tube. • Cells are then counted using a BioRad TC10 cell counter and the required amount of cells are centrifuged at 1200 RPM for 5 minutes. Required amount is 1.3×10^6 cells/mL APOL1 T-Rex HEK cells. • The pellet is suspended in the assay medium. • Using the MultiDrop, add 20 μL to each well (corresponds to 26000 cells total per well) of a 384-well black, transparent, flat bottom Poly-D coated plate. • Tetracycline as prepared in the following section is added to the cells before plating to induce APOL1 expression. • Plates are left at room temperature for 20 to 30 minutes before incubation at 37° C. and 5% CO2. […]

[1] = read-out: Thallium Assay (IC50)

SMILES | IC50 [1] [nM] | IC50 (Thallium Assay (IC50)) [nM]
CC(C(=O)NC[C@H]1C[C@@H](c2c(-c3ccc(F)cc3)[nH]c3c(F)cc(F)cc32)C1)n1ccnc1 (some centres unmarked) [Compound 299] | > 1000 | –
CC(F)(F)C(=O)N[C@H]1C[C@H](c2c(-c3ccc(F)cc3)[nH]c3c(F)cc(F)cc32)C1 [Compound 130] | 250 to 1000 | –
O=C(CN1CCOCC1)N[C@H]1C[C@@H](c2c(-c3ccc(F)cc3)[nH]c3c(F)cc(F)cc32)C1 [Compound 57] | > 1000 | –
N[C@H]1C[C@@H](c2c(-c3ccc(F)cc3)[nH]c3c(F)cc(F)cc32)C1 [Compound 28, (1s,3s)-3-(5,7-difluoro-2-(4-fluorophenyl)-1H-indol-3-yl)cyclobutan-1-amine] | – | < 250
O=C(N[C@H]1C[C@@H](c2c(-c3ccc(F)cc3)[nH]c3c(F)cc(F)cc32)C1)OCc1ccccc1 [Compound 27, benzyl((1s,3s)-3-(5,7-difluoro-2-(4-fluorophenyl)-1H-indol-3-yl)cyclobutyl)carbamate] | > 1000 | –
O=C(N[C@H]1C[C@H](c2c(-c3ccc(F)cc3)[nH]c3c(F)cc(F)cc32)C1)C(O)C1CC1 (some centres unmarked) [Compound 92] | 250 to 1000 | –
CN1CCC(CC(=O)NC[C@H]2C[C@@H](c3c(-c4ccc(F)cc4)[nH]c4c(F)cc(F)cc43)C2)C1 (some centres unmarked) [Compound 260] | > 1000 | –
Fc1ccc(-c2[nH]c3c(F)cc(F)cc3c2[C@H]2C[C@H](CNc3nnc(C(F)(F)F)s3)C2)cc1 [Compound 423, N-(((1r,3r)-3-(5,7-difluoro-2-(4-fluorophenyl)-1H-indol-3-yl)cyclobutyl)methyl)-5-(trifluoromethyl)-1,3,4-thiadiazol-2-amine] | > 1000 | –
O=C(NC[C@H]1C[C@H](c2c(-c3ccc(F)cc3)[nH]c3c(F)cc(F)cc32)C1)[C@H]1COCCN1 [Compound 257] | > 1000 | –
Cc1cc[nH]c1C(=O)NC1CC(Cc2c(-c3ccc(F)cc3)[nH]c3c(F)cc(F)cc23)C1 (centres unmarked) [Compound 171] | > 1000 | –
O=C(CCN1CCCC1=O)N[C@H]1C[C@@H](c2c(-c3ccc(F)cc3)[nH]c3c(F)cc(F)cc32)C1 [Compound 48] | > 1000 | –
CC1(NCC2CC(c3c(-c4ccc(F)cc4)[nH]c4c(F)cc(F)cc34)C2)COC1 (centres unmarked) [Compound 404] | > 1000 | –
CC(CO)NCC1CC(c2c(-c3ccc(F)cc3)[nH]c3c(F)cc(F)cc23)C1 (mixture of isomers) [Compound 378] | 250 to 1000 | –
O=C(Cc1cnccn1)NC[C@H]1C[C@H](c2c(-c3ccc(F)cc3)[nH]c3c(F)cc(F)cc32)C1 [Compound 238] | > 1000 | –
NC(=O)CC(=O)NC[C@H]1C[C@@H](c2c(-c3ccc(F)cc3)[nH]c3c(F)cc(F)cc32)C1 [Compound 243] | > 1000 | –
CC(C)(C)OC(=O)NC1(C(=O)NC[C@H]2C[C@H](c3c(-c4ccc(F)cc4)[nH]c4c(F)cc(F)cc43)C2)COC1 [Compound 311] | > 1000 | –
CN1CCC(NCC2CC(c3c(-c4ccc(F)cc4)[nH]c4c(F)cc(F)cc34)C2)C1=O (centres unmarked) [Compound 381] | 250 to 1000 | –
Cc1nccn1CC(=O)NC[C@H]1C[C@@H](c2c(-c3ccc(F)cc3)[nH]c3c(F)cc(F)cc32)C1 [Compound 321] | > 1000 | –
O=C1CC(NC[C@H]2C[C@H](c3c(-c4ccc(F)cc4)[nH]c4c(F)cc(F)cc43)C2)C(=O)N1 (some centres unmarked) [Compound 422, 3-((((1r,3r)-3-(5,7-difluoro-2-(4-fluorophenyl)-1H-indol-3-yl)cyclobutyl)methyl)amino)pyrrolidine-2,5-dione] | 250 to 1000 | –
O=C1CCC(C(=O)N[C@H]2C[C@H](c3c(-c4ccc(F)cc4)[nH]c4c(F)cc(F)cc43)C2)CN1 (some centres unmarked) [Compound 90] | > 1000 | –
O=C(CC1CS(=O)(=O)C1)NC[C@H]1C[C@@H](c2c(-c3ccc(F)cc3)[nH]c3c(F)cc(F)cc32)C1 [Compound 231] | > 1000 | –

SMILES | IC50 [1] [nM] | IC50 (Thallium Assay (IC50)) [nM]
O=C(NC[C@H]1C[C@H](c2c(-c3ccc(F)cc3)[nH]c3c(F)cc(F)cc32)C1)C1COC1 [Compound 202] | < 250 | –
OCC1(NC2CC(c3c(-c4ccc(F)cc4)[nH]c4c(F)cc(F)cc34)C2)CC1 (centres unmarked) [Compound 21] | 250 to 1000 | –
Cn1ccc(CC(=O)NC[C@H]2C[C@@H](c3c(-c4ccc(F)cc4)[nH]c4c(F)cc(F)cc43)C2)n1 [Compound 278] | > 1000 | –
N[C@H](CO)C(=O)NC[C@H]1C[C@H](c2c(-c3ccc(F)cc3)[nH]c3c(F)cc(F)cc32)C1 [Compound 201] | < 250 | –
C[C@@]1(C(=O)NC[C@H]2C[C@H](c3c(-c4ccc(F)cc4)[nH]c4c(F)cc(F)cc43)C2)CCCN1 [Compound 289] | > 1000 | –
Fc1ccc(-c2[nH]c3c(F)cc(F)cc3c2C2CC(NCC(F)F)C2)cc1 (centres unmarked) [Compound 26] | 250 to 1000 | –
OCC1(NCC2CC(c3c(-c4ccc(F)cc4)[nH]c4c(F)cc(F)cc34)C2)CC1 (centres unmarked) [Compound 397] | > 1000 | –
O=C(CC1CC(F)(F)C1)NC[C@H]1C[C@@H](c2c(-c3ccc(F)cc3)[nH]c3c(F)cc(F)cc32)C1 [Compound 313] | > 1000 | –
CN(C)CCC(=O)N[C@H]1C[C@@H](c2c(-c3ccc(F)cc3)[nH]c3c(F)cc(F)cc32)C1 [Compound 59] | > 1000 | –
O=C(Cn1cnnc1)NC[C@H]1C[C@@H](c2c(-c3ccc(F)cc3)[nH]c3c(F)cc(F)cc32)C1 [Compound 307] | > 1000 | –
O=S(=O)(N[C@H]1C[C@H](c2c(-c3ccc(F)cc3)[nH]c3c(F)cc(F)cc32)C1)c1n[nH]c2ncccc12 [Compound 154] | > 1000 | –
O=C1CC(CC(=O)N[C@H]2C[C@@H](c3c(-c4ccc(F)cc4)[nH]c4c(F)cc(F)cc43)C2)CC(=O)N1 [Compound 72] | > 1000 | –
NS(=O)(=O)CCC(=O)N[C@H]1C[C@H](c2c(-c3ccc(F)cc3)[nH]c3c(F)cc(F)cc32)C1 [Compound 116] | 250 to 1000 | –
O=C1CC[C@@H](C(=O)NC[C@H]2C[C@H](c3c(-c4ccc(F)cc4)[nH]c4c(F)cc(F)cc43)C2)N1 [Compound 235] | > 1000 | –
O=C1CC(C(=O)NC[C@H]2C[C@H](c3c(-c4ccc(F)cc4)[nH]c4c(F)cc(F)cc43)C2)CN1 (some centres unmarked) [Compound 273] | > 1000 | –
C[C@@H](CO)NS(=O)(=O)NC[C@H]1C[C@H](c2c(-c3ccc(F)cc3)[nH]c3c(F)cc(F)cc32)C1 [Compound 338] | 250 to 1000 | –
O=C(CN1CCOCC1)N[C@H]1C[C@H](c2c(-c3ccc(F)cc3)[nH]c3c(F)cc(F)cc32)C1 [Compound 121] | > 1000 | –
CC1(C(=O)NC2CC(Cc3c(-c4ccc(F)cc4)[nH]c4c(F)cc(F)cc34)C2)CCNC1=O (mixture of isomers) [Compound 169] | > 1000 | –
O=C1CC(CC(=O)NC2CC(Cc3c(-c4ccc(F)cc4)[nH]c4c(F)cc(F)cc34)C2)C(=O)N1 (centres unmarked) [Compound 164] | > 1000 | –
O=C(N[C@H]1C[C@@H](c2c(-c3ccc(F)cc3)[nH]c3c(F)cc(F)cc32)C1)C1COC1 [Compound 71] | 250 to 1000 | –
